Read-outs that look alike come from different tables or passages of the source.
Key:
intracellular MRSA = type: cell-based, Staphylococcus aureus; settings: for z-scoreMRSA+ mean: mean of 3 replicates; for z-scoreMRSA+ rep 1 / %GFP+ rep 1: replicate 1; for z-scoreMRSA+ rep 2 / %GFP+ rep 2: replicate 2; for z-scoreMRSA+ rep 3 / %GFP+ rep 3: replicate 3
Summary of the method: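 HeLa cells were infected with GFP-expressing MRSA (mean MOI 6.8) for 1 h, treated with 30 µg/ml gentamicin for 15 min, then incubated overnight at 37°C with kinase inhibitors and 5 µg/ml gentamicin. Flow cytometry gave % GFP-positive cells, with cell count as viability. Hits were z-score ≤ -2 (infection) and ≥ -3 (count) versus DMSO.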

HeLa cells = assay: Compound screen by flow cytometry: HeLa cell count as surrogate readout of cell viability (z-scoreHeLa); type: cell-based, human; settings: for z-scoreHeLa mean: mean of 3 replicates; for z-scoreHeLa rep 1 / cell count rep 1: replicate 1; for z-scoreHeLa rep 2 / cell count rep 2: replicate 2; for z-scoreHeLa rep 3 / cell count rep 3: replicate 3
Summary of the method: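 The viability surrogate was the count of fixed HeLa cells by flow cytometry, converted to z-scores against DMSO controls with values deviating two-fold excluded. Before counting, cells had been infected with MRSA for 1 h and cleared of extracellular bacteria with gentamicin. They were then exposed overnight to kinase inhibitors in triplicate.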

[1] = PKIS compound screen, Yes/No call
[2] = PKIS compound screen, Yes/No call (effect without cell death)
[3] = PKIS compounds raw data, MRSA-infected HeLa cells
[4] = PKIS compounds raw data, HeLa cell count
[5] = PKIS compound screen raw data, MRSA-infected HeLa cells
[6] = PKIS compound screen, MRSA-infected HeLa cells
[7] = PKIS compound screen raw data, HeLa cell count
[8] = PKIS compound screen, HeLa cell count
[9] = compound screen, MRSA-infected HeLa cells
[10] = compound screen, HeLa cell count

Row | Structure (SMILES) | effect (intracellular MRSA; [1]) | hit (intracellular MRSA; [2]) | z-scoreMRSA+ mean (intracellular MRSA; PKIS compound screen) | z-scoreMRSA+ rep 1 (intracellular MRSA; PKIS compound screen) | z-scoreMRSA+ rep 2 (intracellular MRSA; PKIS compound screen) | z-scoreMRSA+ rep 3 (intracellular MRSA; PKIS compound screen) | %GFP+ rep 1 (intracellular MRSA; [3]) [%] | %GFP+ rep 2 (intracellular MRSA; [3]) [%] | %GFP+ rep 3 (intracellular MRSA; [3]) [%] | cell death (HeLa cells; [1]) | z-scoreHeLa mean (HeLa cells; PKIS compound screen) | z-scoreHeLa rep 1 (HeLa cells; PKIS compound screen) | z-scoreHeLa rep 2 (HeLa cells; PKIS compound screen) | z-scoreHeLa rep 3 (HeLa cells; PKIS compound screen) | cell count rep 1 (HeLa cells; [4]) | cell count rep 2 (HeLa cells; [4]) | cell count rep 3 (HeLa cells; [4]) | %GFP+ rep 1 (intracellular MRSA; [5]) [%] | %GFP+ rep 2 (intracellular MRSA; [5]) [%] | %GFP+ rep 3 (intracellular MRSA; [5]) [%] | also measured
1 | Cc1cc(Cl)cc2c1NC(=O)C2=NNc1ccc(S(N)(=O)=O)cc1 [GW279320X] | No | No | 4.85 | 4.78 | 5.69 | 4.09 | 28.1 | 30.5 | 29.7 | No | 1.27 | 0.91 | 1.43 | 1.47 | 5783 | 6163 | 10033 |  |  |  | 
2 | NS(=O)(=O)c1ccc(N/N=C2\C(=O)Nc3ccc(Cl)cc32)cc1 [GW280670X] | No | No | 6.79 | 7.09 | 11.94 | 1.34 | 35.3 | 49.2 | 20.4 | No | 0.17 | -0.14 | 0.27 | 0.37 | 4621 | 4629 | 7741 |  |  |  | 
3 | Cn1cncc1-c1cc2c(Nc3ccc(OCc4ccccc4)cc3)ncnc2cn1 [GW281179X] | No | No | -0.18 | -0.25 | 0.13 | -0.42 | 25.8 | 26.7 | 25.0 | No | -1.83 | -2.06 | -2.65 | -0.79 | 2614 | 2008 | 4357 | 19.2 | 17.8 | 19.0 | z-scoreMRSA+ mean (intracellular MRSA; [6]): -0.31; z-scoreMRSA+ rep 1 (intracellular MRSA; [6]): 0.11; z-scoreMRSA+ rep 2 (intracellular MRSA; [6]): -0.44; z-scoreMRSA+ rep 3 (intracellular MRSA; [6]): -0.61; effect (intracellular MRSA; PKIS compound screen, Yes/No call on z-scoreMRSA+): No; cell count rep 1 (HeLa cells; [7]): 28376; cell count rep 2 (HeLa cells; [7]): 11001; cell count rep 3 (HeLa cells; [7]): 11278; z-scoreHeLa mean (HeLa cells; [8]): -1.41; z-scoreHeLa rep 1 (HeLa cells; [8]): -0.31; z-scoreHeLa rep 2 (HeLa cells; [8]): -2.45; z-scoreHeLa rep 3 (HeLa cells; [8]): -1.49; cell death (HeLa cells; PKIS compound screen, Yes/No call on z-scoreHeLa): No
4 | Cc1cccc2c1NC(=O)C2=NNc1ccc(S(N)(=O)=O)cc1 [GW282536X] |  |  |  |  |  |  |  |  |  |  |  |  |  |  |  |  |  | 21.7 | 20.9 | 20.2 | effect (intracellular MRSA; Yes/No call from z-scoreMRSA+): No; hit (intracellular MRSA; Yes/No: effect without cell death): No; z-scoreMRSA+ mean (intracellular MRSA; [9]): -0.62; z-scoreMRSA+ rep 1 (intracellular MRSA; [9]): -0.83; z-scoreMRSA+ rep 2 (intracellular MRSA; [9]): -0.42; z-scoreMRSA+ rep 3 (intracellular MRSA; [9]): -0.60; cell count rep 1 (HeLa cells; [7]): 1823; cell count rep 2 (HeLa cells; [7]): 2013; cell count rep 3 (HeLa cells; [7]): 1046; cell death (HeLa cells; Yes/No call from z-scoreHeLa): No; z-scoreHeLa mean (HeLa cells; [10]): -2.08; z-scoreHeLa rep 1 (HeLa cells; [10]): -1.82; z-scoreHeLa rep 2 (HeLa cells; [10]): -1.76; z-scoreHeLa rep 3 (HeLa cells; [10]): -2.65
5 | CN(C)c1cc2c(Nc3ccc4c(cnn4Cc4ccccc4)c3)ncnc2cn1 [GW282974X] | No | No | -0.84 | -0.54 | -0.77 | -1.21 | 11.5 | 11.2 | 11.8 | No | 1.58 | 0.95 | 1.79 | 2.01 | 5822 | 6633 | 11155 |  |  |  | 

Source: article PMC10999543, “Identification of kinase modulators as host-directed therapeutics against intracellular methicillin-resistant Staphylococcus aureus” (Frontiers in Cellular and Infection Microbiology, 2024)
